Data set [1] in a line: (§1) Half life in Swiss Webster mouse at 0.3 mg/kg, po administered as cassette dosing. In kind it is ADME, organism-based. More on the design: dose 0.3 mg/kg, route oral. To be noted: Swiss Webster, in vivo.
Data set [2] concerns Mus musculus. Put plainly: (§2) Cmax in Swiss Webster mouse at 0.3 mg/kg, po administered as cassette dosing. Type of data set: ADME, organism-based. Further details: dose 0.3 mg/kg, route oral. Particulars: in vivo.
The nature of data set [3]: (§3) AUC in Swiss Webster mouse at 0.3 mg/kg, po administered as cassette dosing. Further details: dose 0.3 mg/kg, route oral. Particulars: Swiss Webster, plasma. In kind it is ADME, organism-based, Plasma.
The nature of data set [4]: Lipophilicity, log P of the compound by shake-flask method. In kind it is physicochemical. To be noted: octanol/water.
A short description of data set [5]: in vivo. To be noted: Swiss Webster, mouse, po, 0.3 mg/kg.
Data set [6] can be described thus: as §2. In kind it is ADME, organism-based. More on the design: dose 0.3 mg/kg, route oral. Particulars: Swiss Webster, in vivo.
The subject of data set [7] is Mus musculus. Described as §1. Type of data set: ADME, organism-based. Further details: dose 0.3 mg/kg, route oral. Particulars: in vivo.
In data set [8] the test system is Mus musculus. Described as §3. Further details: dose 0.3 mg/kg, route oral. Particulars: in vivo. In kind it is ADME, organism-based, Plasma.
Data set [9] can be described thus: Half life in Sprague-Dawley rat at 0.3 mg/kg, po administered as cassette dosing. Type of data set: ADME, organism-based. More on the design: dose 0.3 mg/kg, route oral. Particulars: in vivo.
Data set [10] can be described thus: AUC in Sprague-Dawley rat at 0.3 mg/kg, po administered as cassette dosing. Type of data set: ADME, organism-based. More on the design: dose 0.3 mg/kg, route oral. Particulars: plasma.
The nature of data set [11]: in vivo. To be noted: Sprague-Dawley, rat, po, 0.3 mg/kg.
Data set [12] is described as follows: Cmax in Sprague-Dawley rat at 0.3 mg/kg, po administered as cassette dosing. Type of data set: ADME, organism-based. Further details: dose 0.3 mg/kg, route oral. Particulars: in vivo.

Each structure is given as a SMILES string.

With `CS(=O)(=O)N1CCC(NC(=O)Nc2ccc(OC(F)(F)F)cc2)CC1`, the half-life in data set [1] was 15 h. In addition, the concentration in the data set on Mus musculus [2] peaked (Cmax) at 370 nM. This compound came in with an AUC in [3] of 5.3 µM·h.

Take `CC(=O)N1CCC(NC(=O)Nc2ccc(C(F)(F)F)cc2)CC1`: the lipophilicity (logP) in data set [4] is 2.74.

For `CS(=O)(=O)N1CCC(NC(=O)Nc2ccc(C(F)(F)F)cc2)CC1`, in the data set “in vivo [5]”, the Tmax was found to be 8 h. Also, the half-life in data set [1] is 22 h. In data set [6], this compound had a Cmax of 130 nM. The compound further had an AUC in data set [3] of 4.67 µM·h. Moreover, the logP in [4] turned out to be 2.94.

With `CC(C)S(=O)(=O)N1CCC(NC(=O)Nc2ccc(C(F)(F)F)cc2)CC1`, the logP in data set [4] was determined as 3.39.

Consider `CCC(C)C(=O)N1CCC(NC(=O)N[C@H]2CC[C@H](CC)CC2)CC1` (stereo partly drawn), for which, in the data set with Mus musculus [7], the t1/2 was found to be 12 h. In [6], this compound registered a Cmax of 5 nM. The area under the curve (AUC) in the data set with Mus musculus [8] stood at 0.037 µM·h.

Regarding `CC(C)C(=O)N1CCC(NC(=O)Nc2ccc(C(F)(F)F)cc2)CC1`, the time to peak (Tmax) in “in vivo [5]” and in the data set “in vivo [11]” was 4 h each time. Further, the half-life in data set [1] was 6 h; in [9], 5.4 h. Further, the results for the AUC in data set [10] and in data set [3] were 7.3 µM·h and 19.7 µM·h, respectively. Also, the Cmax in data set [6] worked out at 1160 nM; in data set [12], 510 nM.

As to `O=C(Nc1ccc(C(F)(F)F)cc1)NC1CCN(C(=O)C2CC2)CC1`, the time to peak (Tmax) in “in vivo [5]” worked out at 6 h. The compound further had a half-life in data set [1] of 17 h. In [6], this compound showed a peak concentration (Cmax) of 960 nM. For the same compound, in data set [3], the AUC worked out at 24.6 µM·h. The compound also came in with a logP in data set [4] of 3.18.

For the compound `CCC(C)C(=O)N1CCC(NC(=O)Nc2ccc(C(F)(F)F)cc2)CC1` (stereo not drawn), the time to peak (Tmax) in the data set “in vivo [5]” came out at 0.5 h. This compound also gave a half-life in data set [1] of 6 h. This compound also showed a peak concentration (Cmax) in data set [6] of 320 nM. This compound displayed an area under the curve (AUC) in [3] of 3.29 µM·h. Further, in [4], the log partition coefficient (logP) is 3.83.

Consider `CC[C@H](C)C(=O)N1CCC(NC(=O)Nc2ccc(C(F)(F)F)cc2)CC1`, for which the Tmax in “in vivo [5]” and in the data set “in vivo [11]” was 1 h each time. Moreover, the half-life in data set [1] is 5 h; in data set [9] it was 4.9 h. Also, the exposure (AUC) stood at 5.72 µM·h in data set [10] and 4.94 µM·h in data set [3]. The Cmax in data set [6] came to 435 nM; in [12], 790 nM. In [4], the logP came out at 3.84.

Take `CC(C)CC(=O)N1CCC(NC(=O)Nc2ccc(C(F)(F)F)cc2)CC1`: in data set [4], the logP worked out at 3.86.

In the case of `O=C(Nc1ccc(C(F)(F)F)cc1)NC1CCN(C(=O)CC(F)(F)F)CC1`, the time to peak (Tmax) in “in vivo [5]” was 8 h. The compound also gave a half-life in data set [1] of 15.4 h. This compound registered a Cmax in data set [6] of 330 nM. The same compound displayed an area under the curve (AUC) in [3] of 8.85 µM·h. The compound also returned a lipophilicity (logP) in [4] of 3.99.

Compound `O=C(Nc1ccc(C(F)(F)F)cc1)NC1CCN(C(=O)CCC(F)(F)F)CC1` returned a log partition coefficient (logP) in [4] of 3.66.

For the compound `CCC(C)C(=O)N1CCC(NC(=O)Nc2ccc(C(C)C)cc2)CC1` (stereo not drawn), the time of peak concentration (Tmax) in the data set “in vivo [5]” worked out at 0.5 h. For the same compound, the peak level in data set [6] (Cmax) was 90 nM. In data set [3], this compound returned an AUC of 0.2 µM·h. Also, the logP in data set [4] is 4.21.

Regarding `CCC(C)C(=O)N1CCC(NC(=O)Nc2ccc(C(C)(C)C)cc2)CC1` (stereo not drawn), the log partition coefficient (logP) in data set [4] worked out at 5.12.

With `CCC(C)C(=O)N1CCC(NC(=O)Nc2ccc(C(F)(C(F)(F)F)C(F)(F)F)cc2)CC1` (stereo not drawn), the time of peak concentration (Tmax) in “in vivo [5]” was 2.5 h. Besides, in data set [1], the half-life was 4.5 h. This compound displayed a Cmax in data set [6] of 135 nM. Further, the AUC in data set [3] is 1.6 µM·h. This compound came in with a logP in data set [4] of 4.96.

For the compound `CCC(C)C(=O)N1CCC(NC(=O)Nc2ccc(OC(F)(F)F)cc2)CC1` (stereo not drawn), the Tmax in the data set “in vivo [5]” worked out at 2 h. The compound further gave a half-life in data set [1] of 6 h. The highest level in data set [6] (Cmax) was 235 nM. The compound also had an exposure (AUC) in data set [3] of 3.3 µM·h. In data set [4], the logP turned out to be 3.98.

Regarding `CCC(C)C(=O)N1CCC(NC(=O)NC2CCCCCC2)CC1` (stereo not drawn), the time to peak (Tmax) in the data set “in vivo [5]” came out at 0.5 h. In [1], this compound showed a half-life of 8.4 h. In data set [6], this compound had a Cmax of 3 nM. This compound also registered an area under the curve (AUC) in [3] of 0.075 µM·h.

As for `CC(C)C(=O)N1CCC(NC(=O)Nc2ccc(OC(F)(F)F)cc2)CC1`, the Tmax in the data set “in vivo [5]” amounted to 5 h; in “in vivo [11]” it was 1 h. The half-life in data set [1] is 9 h; in [9], 3.5 h. Further, the values for the AUC in data set [10] and in [3] were 12 µM·h and 19.5 µM·h, respectively. Besides, the figures for the highest concentration (Cmax) in [6] and in data set [12] were 900 nM and 890 nM, respectively.

In the case of `CC[C@H](C)C(=O)N1CCC(NC(=O)Nc2ccc(OC(F)(F)F)cc2)CC1`, the time of peak concentration (Tmax) in “in vivo [5]” and in the data set “in vivo [11]” was 4 h throughout. Besides, the half-life is 7.7 h in data set [1] and 4.2 h in data set [9]. In addition, the exposure (AUC) in data set [10] was 2.59 µM·h; in data set [3], 2.53 µM·h. Besides, the Cmax in data set [6] turned out to be 195 nM; in [12] it was 297 nM. Further, the lipophilicity (logP) in data set [4] was determined as 3.97.

With `O=C(Nc1ccc(C(F)(C(F)(F)F)C(F)(F)F)cc1)NC1CCN(C(=O)CC(F)(F)F)CC1`, in the data set “in vivo [5]”, the time of peak concentration (Tmax) was 8 h. Besides, the half-life in data set [1] was 18.9 h. Moreover, the highest concentration (Cmax) in [6] amounted to 365 nM. In data set [3], the exposure (AUC) is 9.6 µM·h. The compound also showed a logP in data set [4] of 4.89.

As for `CCS(=O)(=O)N1CCC(NC(=O)Nc2ccc(C(F)(F)F)cc2)CC1`, the lipophilicity (logP) in data set [4] is 3.08.

As to `CCCS(=O)(=O)N1CCC(NC(=O)Nc2ccc(C(F)(F)F)cc2)CC1`, the logP in data set [4] was determined as 3.39.

In data set [4], `O=C(Nc1ccc(C(F)(F)F)cc1)NC1CCN(S(=O)(=O)C2CC2)CC1` showed a logP of 3.39.

Turning to `O=C(Nc1ccc(C(F)(F)F)cc1)NC1CCN(S(=O)(=O)CC(F)(F)F)CC1`, the time to peak (Tmax) in “in vivo [5]” is 8 h. This compound also showed a half-life in data set [1] of 25 h. In data set [6], this compound had a maximum concentration (Cmax) of 100 nM. This compound also had an AUC in [3] of 4.27 µM·h. The logP in [4] amounted to 3.42.

As to `CCCCS(=O)(=O)N1CCC(NC(=O)Nc2ccc(C(F)(F)F)cc2)CC1`, in “in vivo [5]”, the Tmax stood at 1 h. The compound also showed a half-life in [1] of 7.4 h. In addition, the peak concentration (Cmax) in [6] amounted to 30 nM. In [3], this compound had an area under the curve (AUC) of 0.245 µM·h. This compound had a logP in [4] of 3.95.

For `CCCCS(=O)(=O)N1CCC(NC(=O)Nc2ccc(OC(F)(F)F)cc2)CC1`, in “in vivo [5]”, the Tmax is 1.2 h. The compound further had a half-life in data set [1] of 2 h. This compound also returned a Cmax in [6] of 65 nM. The same compound showed an AUC in data set [3] of 0.22 µM·h. This compound showed a lipophilicity (logP) in [4] of 4.13.

In [6], `CC(=O)N1CCC(NC(=O)NC23CC4CC(CC(C4)C2)C3)CC1` [AR9281] yielded a Cmax of 30 nM. Also, the AUC in data set [3] came out at 0.183 µM·h.

Values taken from ChEMBL document CHEMBL3351722, “Optimized inhibitors of soluble epoxide hydrolase improve in vitro target residence time and in vivo efficacy” (J Med Chem, 2014).
